In article PMC12154458, “High-Throughput Screens of Repurposing Hub and DOS Chemical Libraries Reveal Compounds with Novel and Potent Inhibitory Activity Against the Essential Non-Neuronal Acetylcholinesterase of Schistosoma mansoni (SmTAChE)” (International Journal of Molecular Sciences, 2025):
Read-outs that look alike come from different tables or passages of the source.

Assays:
rSmTAChE [1] = molecular target: T1, rSmTAChE (Schistosoma mansoni, UniProt A0A3Q0KMM5); assay: biochemical
rSmTAChE [2] = molecular target: T1, rSmTAChE; format: biochemical; conditions: for IC50: read-out: qAC50 (IC50), rSmTAChE
[3] = molecular target: recombinant human acetylcholinesterase, rHsAChE (Homo sapiens, UniProt P22303); assay: biochemical
Chain of recombinant human acetylcholinesterase, rHsAChE (P22303 32-614): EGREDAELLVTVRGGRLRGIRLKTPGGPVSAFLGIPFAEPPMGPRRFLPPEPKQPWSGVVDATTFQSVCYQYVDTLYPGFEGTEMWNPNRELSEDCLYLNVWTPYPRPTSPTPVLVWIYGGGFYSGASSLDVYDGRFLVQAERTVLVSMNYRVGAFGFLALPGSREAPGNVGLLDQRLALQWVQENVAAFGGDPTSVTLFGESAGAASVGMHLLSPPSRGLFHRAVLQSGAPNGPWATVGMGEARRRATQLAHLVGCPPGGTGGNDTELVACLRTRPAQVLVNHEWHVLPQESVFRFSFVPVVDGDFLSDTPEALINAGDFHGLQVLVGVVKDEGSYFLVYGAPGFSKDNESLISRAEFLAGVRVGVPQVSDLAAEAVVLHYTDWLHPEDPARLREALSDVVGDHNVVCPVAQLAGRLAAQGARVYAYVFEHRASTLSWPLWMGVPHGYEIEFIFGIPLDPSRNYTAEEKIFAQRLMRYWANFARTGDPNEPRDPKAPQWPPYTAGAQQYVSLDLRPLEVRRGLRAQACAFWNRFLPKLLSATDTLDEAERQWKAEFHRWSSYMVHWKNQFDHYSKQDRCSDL

[4] = read-out: qAC50 (IC50), rHsAChE
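For Inhibition (%) (Average) in this document: mostly 20 µM final but a few compounds at 5 or 10 µM.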
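For Inhibition (%) Replicate A in this document: mostly 20 µM final but a few compounds at 5 or 10 µM.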
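For Inhibition (%) Replicate B in this document: mostly 20 µM final but a few compounds at 5 or 10 µM.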

T1 sequence (A0A3Q0KMM5 27-661 limits assumed): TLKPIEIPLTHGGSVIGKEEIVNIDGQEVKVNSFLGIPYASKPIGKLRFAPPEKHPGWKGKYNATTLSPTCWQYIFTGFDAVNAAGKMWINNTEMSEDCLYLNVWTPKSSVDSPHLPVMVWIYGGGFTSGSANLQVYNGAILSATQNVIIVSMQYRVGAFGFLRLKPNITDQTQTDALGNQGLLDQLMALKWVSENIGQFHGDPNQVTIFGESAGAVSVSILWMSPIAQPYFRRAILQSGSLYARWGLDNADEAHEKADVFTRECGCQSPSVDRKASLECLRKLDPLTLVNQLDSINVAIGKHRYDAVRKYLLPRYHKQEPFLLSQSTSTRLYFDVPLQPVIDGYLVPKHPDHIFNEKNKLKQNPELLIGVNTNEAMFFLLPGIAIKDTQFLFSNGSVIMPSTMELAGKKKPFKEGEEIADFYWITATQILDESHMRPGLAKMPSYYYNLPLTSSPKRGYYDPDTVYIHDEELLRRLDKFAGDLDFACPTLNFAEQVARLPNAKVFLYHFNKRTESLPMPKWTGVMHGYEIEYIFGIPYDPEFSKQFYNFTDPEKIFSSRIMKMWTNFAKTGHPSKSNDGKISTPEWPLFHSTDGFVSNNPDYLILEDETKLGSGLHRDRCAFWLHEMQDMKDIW

## COc1ccc(NC(=O)Nc2ccc3c(c2)[C@H]2C[C@@H](CC(=O)NCC(F)(F)F)O[C@@H](CO)[C@H]2O3)cc1 [BRD-K54729370-001-01-4]
rSmTAChE [1]
  Inhibition (%) (Average): 90.84%
  Inhibition (%) Replicate A: 91.00%
  Inhibition (%) Replicate B: 90.69%
rSmTAChE [2]
  rSmTAChE Data Mode: inactive
[3]
  rHsAChE Data Mode: inactive

## CCCCC/C=C\C/C=C\C/C=C\C/C=C\CCCC(=O)Nc1ccc(O)cc1 [BRD-K55462201-001-07-3]
rSmTAChE [1]
  Inhibition (%) (Average): 74.15%
  Inhibition (%) Replicate A: 71.40%
  Inhibition (%) Replicate B: 76.90%
rSmTAChE [2]
  Data Mode (curve class), rSmTAChE: inactive
[3]
  Data Mode (curve class), rHsAChE: decreasing
[3]; [4]
  IC50: 22.4 µM

## CCOC(=O)N1c2ccc(C(F)(F)F)cc2[C@@H](N(Cc2cc(C(F)(F)F)cc(C(F)(F)F)c2)C(=O)OC)C[C@H]1CC [BRD-K55675242-001-03-0]
rSmTAChE [1]
  Inhibition (%) (Average): 71.11%
  Inhibition (%) Replicate A: 72.88%
  Inhibition (%) Replicate B: 69.34%
rSmTAChE [2]
  Data Mode (curve class), rSmTAChE: inactive
[3]
  Data Mode (curve class), rHsAChE: decreasing (weakly active)
[3]; [4]
  IC50: > 38 µM

## CCc1c(C(=O)NCCc2ccc(N3CCCCC3)cc2)[nH]c2ccc(Cl)cc12 [BRD-K57597776-001-01-2]
rSmTAChE [1]
  Inhibition (%) (Average): 61.28%
  Inhibition (%) Replicate A: 60.33%
  Inhibition (%) Replicate B: 62.24%
rSmTAChE [2]
  Data Mode (curve class), rSmTAChE: inactive
[3]
  Data Mode (curve class), rHsAChE: inactive

## O=C(Cc1cccc(OC(F)(F)F)c1)Nc1ccc(CCCCc2nnc(NC(=O)Cc3ccccn3)s2)nn1 [BRD-K58070273-001-03-3]
rSmTAChE [1]
  Inhibition (%) (Average): 71.54%
  Inhibition (%) Replicate A: 74.28%
  Inhibition (%) Replicate B: 68.80%
rSmTAChE [2]
  Data Mode (curve class), rSmTAChE: decreasing (weakly active)
  IC50: > 38 µM
[3]
  Data Mode (curve class), rHsAChE: inactive

## CCCCCCCCCCCCc1ccc(S(=O)(=O)Nc2nncs2)cc1 [BRD-K59745944-001-04-6]
rSmTAChE [1]
  Inhibition (%) (Average): 78.08%
  Inhibition (%) Replicate A: 80.43%
  Inhibition (%) Replicate B: 75.72%
rSmTAChE [2]
  Data Mode (curve class), rSmTAChE: decreasing
  IC50: 1.86 µM
[3]
  Data Mode (curve class), rHsAChE: decreasing
[3]; [4]
  IC50: 1.16 µM

## C[C@@H]1C[C@H]2[C@@H]3CCC4=CC(=O)C=C[C@]4(C)[C@@]3(Cl)[C@@H](O)C[C@]2(C)[C@@]1(OC(=O)c1ccco1)C(=O)CCl [BRD-K60640630-001-11-0]
rSmTAChE [1]
  Inhibition (%) (Average): 71.97%
  Inhibition (%) Replicate A: 69.48%
  Inhibition (%) Replicate B: 74.46%
rSmTAChE [2]
  Data Mode (curve class), rSmTAChE: decreasing (weakly active)
  IC50: > 38 µM
[3]
  Data Mode (curve class), rHsAChE: inactive

## CCCN1C[C@H](CSC)C[C@@H]2c3cccc4[nH]cc(c34)C[C@H]21 [BRD-K60770992-066-25-0]
rSmTAChE [1]
  Inhibition (%) (Average): 71.65%
  Inhibition (%) Replicate A: 73.49%
  Inhibition (%) Replicate B: 69.82%
rSmTAChE [2]
  Data Mode (curve class), rSmTAChE: decreasing (weakly active)
  IC50: > 38 µM
[3]
  Data Mode (curve class), rHsAChE: decreasing
[3]; [4]
  IC50: 29.7 µM

## COc1cccc(C#Cc2ccc([C@H]3[C@@H](C#N)N(C(=O)c4ccccn4)[C@@H]3CO)cc2)c1 [BRD-K61082257-001-01-7]
rSmTAChE [1]
  Inhibition (%) (Average): 66.17%
  Inhibition (%) Replicate A: 65.93%
  Inhibition (%) Replicate B: 66.40%
rSmTAChE [2]
  rSmTAChE Data Mode: decreasing (weakly active)
[3]
  rHsAChE Data Mode: inactive

## COc1ccc(NC(=O)Nc2ccc3c(c2)[C@@H]2C[C@H](CC(=O)NCc4ccccn4)O[C@@H](CO)[C@@H]2O3)cc1 [BRD-K62846431-001-01-3]
rSmTAChE [1]
  Inhibition (%) (Average): 77.92%
  Inhibition (%) Replicate A: 78.02%
  Inhibition (%) Replicate B: 77.82%
rSmTAChE [2]
  rSmTAChE Data Mode: decreasing (weakly active)
[3]
  rHsAChE Data Mode: decreasing (weakly active)

## COc1cccc(C#Cc2ccc([C@H]3[C@@H](CO)N(C(=O)c4ccccn4)[C@H]3C#N)cc2)c1 [BRD-K64190282-004-01-8, (2R,3R,4S)-4-(hydroxymethyl)-3-[4-[2-(3-methoxyphenyl)ethynyl]phenyl]-1-[oxo(2-pyridinyl)methyl]-2-azetidinecarbonitrile]
rSmTAChE [1]; read-out: rSmTAChE HTS Inhibition (Ave, %)
  inhibition at 20 µM: 92.2%
rSmTAChE [2]
  SI (Hs/Sm): 2.59
  rSmTAChE Data Mode: decreasing
[3]; Table 2, DOS-A library, Inactive = inactive at the maximum tested concentration (40 µM), read-out: IC50 (µM) rHsAChE
  IC50: 33.7 µM
[3]; dose response curve classification, Table S4, DOS-A
  rHsAChE Data Mode: decreasing

## O=C(C[C@H]1C[C@H]2c3cc(NC(=O)NC4CCCC4)ccc3O[C@H]2[C@@H](CO)O1)NCc1ccccc1F [BRD-K64460391-001-01-9]
rSmTAChE [1]
  Inhibition (%) (Average): 88.85%
  Inhibition (%) Replicate A: 89.69%
  Inhibition (%) Replicate B: 88.02%
rSmTAChE [2]
  rSmTAChE Data Mode: decreasing (weakly active)
[3]
  rHsAChE Data Mode: inactive

## O=C(Nc1ccccc1Br)N[C@@H]1CCN(c2ccc(C(F)(F)F)cn2)C1 [BRD-K65991129-001-02-9]
rSmTAChE [1]
  Inhibition (%) (Average): 65.52%
  Inhibition (%) Replicate A: 67.06%
  Inhibition (%) Replicate B: 63.99%
rSmTAChE [2]
  Data Mode (curve class), rSmTAChE: inactive
[3]
  Data Mode (curve class), rHsAChE: inactive

## COc1cccc(C#Cc2ccc([C@@H]3[C@@H](C#N)N(C(=O)c4ccccn4)[C@@H]3CO)cc2)c1 [BRD-K66084396-004-02-2]
rSmTAChE [1]
  Inhibition (%) (Average): 72.85%
  Inhibition (%) Replicate A: 73.10%
  Inhibition (%) Replicate B: 72.60%
rSmTAChE [2]
  rSmTAChE Data Mode: inactive
[3]
  rHsAChE Data Mode: inactive

## N#C[C@H]1[C@H](c2ccc(C3=CCCCC3)cc2)[C@@H](CO)N1S(=O)(=O)c1ccccc1 [BRD-K66729212-001-01-2]
rSmTAChE [1]
  Inhibition (%) (Average): 61.17%
  Inhibition (%) Replicate A: 61.05%
  Inhibition (%) Replicate B: 61.28%
rSmTAChE [2]
  rSmTAChE Data Mode: inactive
[3]
  rHsAChE Data Mode: inactive

## CCCCC(=O)O[C@H]1CC[C@H]2[C@@H]3CCc4cc(O)ccc4[C@H]3CC[C@]12C [BRD-K66766661-001-19-2]
rSmTAChE [1]
  Inhibition (%) (Average): 77.12%
  Inhibition (%) Replicate A: 78.67%
  Inhibition (%) Replicate B: 75.58%
rSmTAChE [2]
  Data Mode (curve class), rSmTAChE: inactive
[3]
  Data Mode (curve class), rHsAChE: decreasing
[3]; [4]
  IC50: 29.4 µM

## COc1ccc(C#Cc2ccc3c(c2)O[C@@H](CN(C)S(=O)(=O)c2ccccc2F)[C@@H](C)CN([C@H](C)CO)S3(=O)=O)cc1 [BRD-K67027685-001-01-8]
rSmTAChE [1]
  Inhibition (%) (Average): 71.37%
  Inhibition (%) Replicate A: 69.23%
  Inhibition (%) Replicate B: 73.51%
rSmTAChE [2]
  rSmTAChE Data Mode: inactive
[3]
  rHsAChE Data Mode: inactive

## C[C@H]1[C@H](C)CC[C@]2(C(=O)O)CC[C@]3(C)C(=CC[C@@H]4[C@@]5(C)CC[C@H](O)C(C)(C)[C@@H]5CC[C@]43C)[C@H]12 [BRD-K68185022-001-14-8]
rSmTAChE [1]
  Inhibition (%) (Average): 75.09%
  Inhibition (%) Replicate A: 74.28%
  Inhibition (%) Replicate B: 75.90%
rSmTAChE [2]
  Data Mode (curve class), rSmTAChE: decreasing (weakly active)
  IC50: > 38 µM
[3]
  Data Mode (curve class), rHsAChE: inactive

## N#C[C@H]1[C@@H](c2ccc(C#CC3CC3)cc2)[C@@H](CO)N1C(=O)Cc1ccccn1 [BRD-K68325500-004-02-0]
rSmTAChE [1]
  Inhibition (%) (Average): 64.83%
  Inhibition (%) Replicate A: 63.64%
  Inhibition (%) Replicate B: 66.02%
rSmTAChE [2]
  rSmTAChE Data Mode: inactive
[3]
  rHsAChE Data Mode: inactive

## CC(C)C#Cc1ccc([C@@H]2[C@@H](CO)N3C(=O)CN(S(=O)(=O)c4ccccc4)C[C@@H]23)cc1 [BRD-K69261014-001-01-3]
rSmTAChE [1]
  Inhibition (%) (Average): 63.59%
  Inhibition (%) Replicate A: 66.79%
  Inhibition (%) Replicate B: 60.39%
rSmTAChE [2]
  rSmTAChE Data Mode: inactive
[3]
  rHsAChE Data Mode: increasing (weakly active)

## COC(=O)[C@]12CCC(C)(C)C[C@@H]1[C@@H]1C(=O)C=C3[C@]4(C)C=C(C#N)C(=O)C(C)(C)[C@@H]4CC[C@@]3(C)[C@]1(C)CC2 [BRD-K69694239-001-02-2]
rSmTAChE [1]
  Inhibition (%) (Average): 75.78%
  Inhibition (%) Replicate A: 75.16%
  Inhibition (%) Replicate B: 76.41%
rSmTAChE [2]
  Data Mode (curve class), rSmTAChE: decreasing
  IC50: 34.7 µM
[3]
  Data Mode (curve class), rHsAChE: decreasing (weakly active)
[3]; [4]
  IC50: > 38 µM

## NC(=O)N/N=C/c1ccc(Oc2ccc(F)cc2)cc1 [BRD-K70912147-001-01-8]
rSmTAChE [1]
  Inhibition (%) (Average): 75.84%
  Inhibition (%) Replicate A: 80.22%
  Inhibition (%) Replicate B: 71.46%
rSmTAChE [2]
  Data Mode (curve class), rSmTAChE: inactive
[3]
  Data Mode (curve class), rHsAChE: inactive

## O=C(C[C@@H]1C[C@@H]2c3cc(NC(=O)NC4CCCC4)ccc3O[C@@H]2[C@@H](CO)O1)NCc1ccccc1F [BRD-K71334452-001-01-3]
rSmTAChE [1]
  Inhibition (%) (Average): 89.18%
  Inhibition (%) Replicate A: 90.25%
  Inhibition (%) Replicate B: 88.11%
rSmTAChE [2]
  rSmTAChE Data Mode: inactive
[3]
  rHsAChE Data Mode: inactive

## COc1ccc(C#Cc2ccc3c(c2)O[C@H](CN(C)S(=O)(=O)c2ccccc2F)[C@H](C)CN([C@@H](C)CO)S3(=O)=O)cc1 [BRD-K71357636-001-01-3]
rSmTAChE [1]
  Inhibition (%) (Average): 64.93%
  Inhibition (%) Replicate A: 63.67%
  Inhibition (%) Replicate B: 66.19%
rSmTAChE [2]
  rSmTAChE Data Mode: inactive
[3]
  rHsAChE Data Mode: inactive

## C[C@H](CO)N1C[C@H](C)[C@@H](CN(C)C(=O)Nc2cc(F)ccc2F)Oc2cc(-c3cccc(C#N)c3)ccc2S1(=O)=O [BRD-K72311435-001-01-2]
rSmTAChE [1]
  Inhibition (%) (Average): 61.10%
  Inhibition (%) Replicate A: 61.21%
  Inhibition (%) Replicate B: 60.99%
rSmTAChE [2]
  rSmTAChE Data Mode: inactive
[3]
  rHsAChE Data Mode: decreasing (weakly active)

## C/C=C/c1cccc(-c2nc(C(=O)NCc3ccc(OC)cc3)cc3c2[C@@H](CCO)N([S@+]([O-])C(C)(C)C)C3)c1 [BRD-K73104592-001-03-5]
rSmTAChE [1]
  Inhibition (%) (Average): 64.19%
  Inhibition (%) Replicate A: 65.92%
  Inhibition (%) Replicate B: 62.45%
rSmTAChE [2]
  rSmTAChE Data Mode: inactive
[3]
  rHsAChE Data Mode: inactive

## C[C@H](CO)N1C[C@H](C)[C@H](CN(C)S(=O)(=O)c2ccc(F)cc2)Oc2c(NC(=O)Nc3cccc4ccccc34)cccc2C1=O [BRD-K73245004-001-02-0]
rSmTAChE [1]
  Inhibition (%) (Average): 68.21%
  Inhibition (%) Replicate A: 69.56%
  Inhibition (%) Replicate B: 66.86%
rSmTAChE [2]
  rSmTAChE Data Mode: decreasing (weakly active)
[3]
  rHsAChE Data Mode: inactive
